Assay results as given in PMC12029982, “The Mechanism of a Novel Mitochondrial-Targeted Icaritin Derivative in Regulating Apoptosis of BEL-7402 Cells Based on the SIRT3 and CypD-Mediated ROS/p38 MAPK Signaling Pathway” (Molecules, 2025).

Columns and labels:
HEK293 = assay: MTT assay, cytotoxicity to normal cell line; type: cell-based, human; conditions: Homo sapiens, HEK293; MTT, 48 h drug exposure, mean ± SD; normal cell line
Description: (§1) Human cancer cell lines BEL-7402, A549, MCF-7, PC-3M, and normal renal cell line HEK293 were bought from the BeNa Culture Collection (Beijing, China). BEL7402, A549, and PC-3M were cultured in RPMI 1640 medium (Gibco, Carlsbad, CA, USA). MCF-7 and HEK293 were cultured in the DMEM medium (Gibco, CA, USA). The medium was supplemented with 10% fetal bovine serum (FBS) (CLARK, San Diego, CA, USA), 100 U/mL penicillin, and 0.1 mg/mL streptomycin (Beyotime, Nanjing, China). The cells were incubated in 5% CO2 at 37 °C.
(§2) The MTT assay was employed to assess the inhibitory effect of each compound on cell growth. A549, PC-3M, MCF-7, BEL-7402, and HEK293 cells in the logarithmic growth phase were seeded in 96-well culture plates at an inoculum density of 5 × 10^4 cells/mL. After overnight incubation at 37 °C in a 5% CO2 atmosphere, the cells fully adhered to the surface. Different concentrations of sample solutions (0, 3.125, 6.25, 12.5, 25, 50, 100 μmol/L) were added (100 μL) to treat the cells. After 48 h of drug treatment, 10 μL of a 5 mg/mL MTT solution was added to each well and incubated for 4 h at 37 °C. The supernatant was then discarded, and 150 μL of DMSO was added to dissolve the formazan. The mixture was shaken at room temperature for 15 min, and the absorbance (D) value was measured at 490 nm using a Microplate Reader (HBS-ScanY, Nanjing, China). The drug IC50 values were calculated using GraphPad Prism (v10.0). Each cell viability experiment was performed in triplicate.

BEL-7402 = assay: MTT assay, antiproliferative activity; type: cell-based; conditions: Homo sapiens, 48 h drug exposure, mean ± SD
Description: as §1, §2

MCF-7 = assay: MTT assay, antiproliferative activity; type: cell-based; conditions: Homo sapiens, MCF7, 48 h drug exposure, mean ± SD
Description: as §1, §2

A549 = assay: MTT assay, antiproliferative activity; type: cell-based; conditions: Homo sapiens, 48 h drug exposure, mean ± SD
Description: as §1, §2

PC-3M = assay: MTT assay, antiproliferative activity; type: cell-based; conditions: Homo sapiens, 48 h drug exposure, mean ± SD
Description: as §1, §2

Structure (SMILES) | IC50 (HEK293) | IC50 (BEL-7402) | IC50 (MCF-7) | IC50 (A549) | IC50 (PC-3M)
COc1ccc(-c2oc3c(CC=C(C)C)c(OC(=O)CCCCCCCC[P+](c4ccccc4)(c4ccccc4)c4ccccc4)cc(O)c3c(=O)c2O)cc1 [Mito-ICT-3] | 55 ± 3.92 µM | 3.85 ± 0.69 µM | 22.5 ± 1.78 µM | 13.7 ± 0.92 µM | 20.6 ± 2.06 µM
COc1ccc(-c2oc3c(CC=C(C)C)c(OC(=O)CCCC[P+](c4ccccc4)(c4ccccc4)c4ccccc4)cc(O)c3c(=O)c2O)cc1 [Mito-ICT-1] | 47 ± 2.91 µM | 2.85 ± 0.7 µM | 10.7 ± 0.35 µM | 21.1 ± 2.67 µM | 33.6 ± 2.53 µM
COc1cccc2c1C(=O)c1c(O)c3c(c(O)c1C2=O)C[C@@](O)(C(=O)CO)C[C@@H]3O[C@H]1C[C@H](N)[C@H](O)[C@H](C)O1 [DOX, doxorubicin, reference compound] | > 100 µM | 3.23 ± 0.64 µM | 2.44 ± 0.81 µM | 6.88 ± 0.62 µM | 0.24 ± 0.11 µM
COc1ccc(-c2oc3c(CC=C(C)C)c(OC(=O)CCCCCCCCBr)cc(O)c3c(=O)c2O)cc1 [Compound 3] | > 100 µM | > 100 µM | > 100 µM | > 100 µM | > 100 µM
CCCCCCCCCCC(=O)Oc1cc(O)c2c(=O)c(O)c(-c3ccc(OC)cc3)oc2c1CC=C(C)C [Compound 8] | > 100 µM | > 100 µM | > 100 µM | > 100 µM | > 100 µM
COc1ccc(-c2oc3c(CC=C(C)C)c(OC(=O)CCCCCC[P+](c4ccccc4)(c4ccccc4)c4ccccc4)cc(O)c3c(=O)c2O)cc1 [Mito-ICT-2] | 53.7 ± 5.15 µM | 3.43 ± 0.91 µM | 23.7 ± 2.24 µM | 10.7 ± 1.09 µM | 27.8 ± 1.74 µM
CCCCC(=O)Oc1cc(O)c2c(=O)c(O)c(-c3ccc(OC)cc3)oc2c1CC=C(C)C [Compound 5] | 77.2 ± 5.13 µM | 39.9 ± 2.06 µM | 48.9 ± 1.42 µM | 97.8 ± 6.4 µM | 60.2 ± 3.88 µM
COc1ccc(-c2oc3c(CC=C(C)C)c(OC(=O)CCCCBr)cc(O)c3c(=O)c2O)cc1 [Compound 1] | 46.8 ± 1.82 µM | 47.8 ± 2.65 µM | 25.8 ± 1.07 µM | 35.8 ± 3.57 µM | 44.5 ± 2.15 µM
COc1ccc(-c2oc3c(CC=C(C)C)c(OC(=O)CCCCCCBr)cc(O)c3c(=O)c2O)cc1 [Compound 2] | > 100 µM | 40.6 ± 5.5 µM | 42.1 ± 5.47 µM | > 100 µM | 76.1 ± 4.44 µM
CCCCCCCCC(=O)Oc1cc(O)c2c(=O)c(O)c(-c3ccc(OC)cc3)oc2c1CC=C(C)C [Compound 7] | > 100 µM | 74.6 ± 4.83 µM | > 100 µM | > 100 µM | > 100 µM
COc1ccc(-c2oc3c(CC=C(C)C)c(OC(=O)CCCCCCCCCCBr)cc(O)c3c(=O)c2O)cc1 [Compound 4] | > 100 µM | > 100 µM | > 100 µM | > 100 µM | 76 ± 4.69 µM
CCCCCCC(=O)Oc1cc(O)c2c(=O)c(O)c(-c3ccc(OC)cc3)oc2c1CC=C(C)C [Compound 6] | > 100 µM | 40.6 ± 5.17 µM | 45.6 ± 3.02 µM | > 100 µM | > 100 µM
COc1ccc(-c2oc3c(CC=C(C)C)c(O)cc(O)c3c(=O)c2O)cc1 [ICT, Icaritin] | 43.2 ± 3.05 µM | 21.8 ± 2.42 µM | 25.7 ± 1.89 µM | 43.1 ± 1.93 µM | 63.6 ± 2.67 µM
O=c1[nH]cc(F)c(=O)[nH]1 [Compound 5-FU, 5-fluorouracil, reference compound] | > 100 µM | 39 ± 1.32 µM | 13.5 ± 2.78 µM | 86.2 ± 7.94 µM | 58.7 ± 2.64 µM
